Here are results for 3 compounds from patent US7893279B2, “Cyclohexanecarboxylic acid compound” (Daiichi Pharmaceutical Co., Ltd., priority 2003, dated 2011).

A short description of data set [1]: Moisture adsorption/desorption (microbalance, automatic vapor adsorption apparatus). The format is physicochemical. The following applies: for Moisture adsorption/desorption: change in weight / stability: crystals about 20 mg, relative humidities 10 to 90% RH. On the procedure:
Compound (1), compound (a), and salts of compound (a) prepared in Example 1, Referential Example 1, and Comparative Example 1, respectively, were evaluated in terms of moisture adsorption/desorption. Specifically, the amount of water adsorbed on or desorbed from each compound was determined through subjecting crystals (about 20 mg) of each compound to a microbalance (automatic vapor adsorption apparatus) and measuring time-elapsed change in weight at relative humidities (RH) ranging from 10 to 90%.

A short description of data set [2]: Solubility to water (37° C.). The note with it: for Water-solubility (in words) / solubility: 37° C., water; for solubility: Table 1. The format is physicochemical.
The target of data set [3] is VLA-4 (Homo sapiens, UniProt P05556+P13612). Put plainly: VLA-4 inhibitory activity. The format is binding. The following applies: compared with compound (a).
Sequence of VLA-4 (P13612 34-1032): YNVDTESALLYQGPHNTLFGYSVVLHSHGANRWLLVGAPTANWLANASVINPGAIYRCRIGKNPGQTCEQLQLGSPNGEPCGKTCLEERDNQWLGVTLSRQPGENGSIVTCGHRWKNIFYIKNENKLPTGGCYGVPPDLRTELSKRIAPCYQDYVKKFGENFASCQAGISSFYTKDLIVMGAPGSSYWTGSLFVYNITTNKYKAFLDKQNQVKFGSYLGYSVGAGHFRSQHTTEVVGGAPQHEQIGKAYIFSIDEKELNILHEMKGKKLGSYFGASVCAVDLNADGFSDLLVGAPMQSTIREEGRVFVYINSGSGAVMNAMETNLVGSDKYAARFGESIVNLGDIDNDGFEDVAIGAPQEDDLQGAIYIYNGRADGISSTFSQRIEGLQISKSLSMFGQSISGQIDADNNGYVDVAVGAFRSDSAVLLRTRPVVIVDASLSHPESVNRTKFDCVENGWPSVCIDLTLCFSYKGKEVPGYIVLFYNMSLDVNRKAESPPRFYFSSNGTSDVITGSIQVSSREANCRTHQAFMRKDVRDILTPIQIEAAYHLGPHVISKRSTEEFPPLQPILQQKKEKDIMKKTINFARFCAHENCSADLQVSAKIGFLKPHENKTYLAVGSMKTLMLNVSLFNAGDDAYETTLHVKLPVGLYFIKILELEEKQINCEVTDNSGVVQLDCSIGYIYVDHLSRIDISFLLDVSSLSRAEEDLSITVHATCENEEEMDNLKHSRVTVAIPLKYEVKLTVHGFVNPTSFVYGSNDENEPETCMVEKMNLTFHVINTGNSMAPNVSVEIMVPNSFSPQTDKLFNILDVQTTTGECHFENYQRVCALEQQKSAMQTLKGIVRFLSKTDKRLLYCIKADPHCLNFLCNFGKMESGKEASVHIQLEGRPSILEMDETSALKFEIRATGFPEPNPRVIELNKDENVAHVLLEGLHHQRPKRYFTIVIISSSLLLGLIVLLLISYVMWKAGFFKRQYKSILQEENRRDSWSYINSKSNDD
Sequence of VLA-4 (P05556 21-798): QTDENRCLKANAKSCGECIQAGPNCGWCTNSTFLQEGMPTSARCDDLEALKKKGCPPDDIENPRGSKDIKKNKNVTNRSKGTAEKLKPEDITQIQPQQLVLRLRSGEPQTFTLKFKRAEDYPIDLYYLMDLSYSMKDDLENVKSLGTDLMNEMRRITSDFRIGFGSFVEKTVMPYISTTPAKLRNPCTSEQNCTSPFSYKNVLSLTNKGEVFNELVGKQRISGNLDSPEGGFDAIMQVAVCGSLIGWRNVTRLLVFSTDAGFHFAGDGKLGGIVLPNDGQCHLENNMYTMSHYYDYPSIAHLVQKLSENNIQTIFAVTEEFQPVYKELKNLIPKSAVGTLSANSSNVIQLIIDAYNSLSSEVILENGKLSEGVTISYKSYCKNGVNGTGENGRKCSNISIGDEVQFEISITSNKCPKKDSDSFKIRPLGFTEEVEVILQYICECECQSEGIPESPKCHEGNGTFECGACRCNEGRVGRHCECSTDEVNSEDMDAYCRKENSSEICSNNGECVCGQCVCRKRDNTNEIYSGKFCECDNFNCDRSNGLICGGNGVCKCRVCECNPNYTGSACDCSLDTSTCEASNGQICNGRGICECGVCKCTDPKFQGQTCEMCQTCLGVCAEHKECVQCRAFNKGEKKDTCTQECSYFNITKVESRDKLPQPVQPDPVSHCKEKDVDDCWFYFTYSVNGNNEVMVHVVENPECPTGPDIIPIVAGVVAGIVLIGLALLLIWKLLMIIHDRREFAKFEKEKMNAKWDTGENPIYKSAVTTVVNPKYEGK

Values after ≈ are worked out from the molar mass of the structure shown.

As to `CO[C@H]1C[C@@H](CO[C@H]2CC[C@H](C(=O)[O-])CC2)N(C(=O)Cc2cc(Cl)c(NC(=O)c3cn(C)c4ccccc34)cc2Cl)C1.[Na+]` [Compound (1), sodium trans-4-[1-[2,5-dichloro-4-[(1-methyl-1H-3-indolylcarbonyl)amino]phenylacetyl]-(4S)-methoxy-(2S)-pyrrolidinylmethoxy]cyclohexanecarboxylate pentahydrate], the “Moisture adsorption/desorption: change in weight / stability” value in data set [1] is “no change in weight under typical humidity conditions”. Moreover, in data set [2], the “Water-solubility (in words)” value was “very high water-solubility” and the solubility is > 1000 µg/mL. Besides, the VLA-4 inhibitory activity entry in data set [3] is “comparable to that of compound (a)”.
For `CO[C@H]1C[C@@H](CO[C@H]2CC[C@H](C(=O)O)CC2)N(C(=O)Cc2cc(Cl)c(NC(=O)c3cn(C)c4ccccc34)cc2Cl)C1` [Compound (a), trans-4-[1-[2,5-dichloro-4-[(1-methyl-1H-3-indolylcarbonyl)amino]phenylacetyl]-(4S)-methoxy-(2S)-pyrrolidinylmethoxy]cyclohexanecarboxylic acid, reference compound], the “Moisture adsorption/desorption: change in weight / stability” value in data set [1] is “change in weight at 40 to 60% RH”. For the same compound, in data set [2], the “Water-solubility (in words)” value is “considerably low water-solubility” and the concentration in solution (solubility) was 0.653 µg/mL (≈ 1.06 µM).
As to `CO[C@H]1C[C@@H](CO[C@H]2CC[C@H](C(=O)[O-])CC2)N(C(=O)Cc2cc(Cl)c(NC(=O)c3cn(C)c4ccccc34)cc2Cl)C1.[Na+]` [Type-I], the “Storage stability (moisture adsorption/desorption property) of crystal forms” value in data set [1] (Type-I and Type-II crystals of compound (1), FIG. 5) was “good storage stability”. In addition, the “Water Solubility” value in data set [2] (crystal forms of compound (1), manner similar to Test Example 2, Table 3) is >1000 µg/mL.
